# Reference: article PMC9319634, “Antibacterial Peptide NP-6 Affects Staphylococcus aureus by Multiple Modes of Action” (International Journal of Molecular Sciences, 2022)
# Peptide text beside a SMILES is read from it.
# Legend:
# [1] = Serum stability (antimicrobial activity after incubation in fetal bovine serum, plate count); format: in vitro ADME; conditions: peptide 1.0 mg/mL in 50% fetal bovine serum, 37 °C, 0, 3 and 6 h; remaining antimicrobial activity by plate count (CFU); repeated three times
# Description: The serum stability assay was conducted to evaluate the effect of serum on the antimicrobial activity of NP-6 using a method that was reported in a previous study. Peptide (1.0 mg/mL) was added to 50% fetal bovine serum and incubated at 37 °C for 0, 3, and 6 h, respectively. The cells that were incubated with PBS, NP-6, and serum were conducted as a blank and a control. The antimicrobial activity of NP-6 was measured using the plate count method. These assays were repeated three times independently. The inhibition rate of samples was calculated according to the following formula:(3) Inhibition rate (%)=Nblank−Nsample/Nblank×100 where Nblank is the colony forming units (CFU) of cells that were incubated with PBS and Nsample is the CFU of cells that were incubated with NP-6, NP-6+ serum, and serum, respectively. The inhibition rate of NP-6+ serum is expressed as the relative value to NP-6.
# mouse red blood cells = experiment: Hemolysis assay; format: cell-based; conditions: 512 µg/mL (1MIC); mouse red blood cells in PBS 0.01 M pH 7.4, 37 °C, 1 h; absorbance 595 nm; 1% Triton X-100 = 100%; mean ± SD, n = 3
# Description: The hemolytic activity of the peptide was evaluated according to Tang et al. with minor modifications. To prepare the red blood cell solution, 1.0 mL of fresh mouse red blood cells was centrifuged for 5 min at 1000× g, and the precipitates were resuspended in 10 mL of PBS (0.01 M, pH 7.4). A total of 50 µL of serial dilutions of peptides (2048, 1024, 512, 256, 128, 64, 32, 16, 8, and 4 µg/mL) were prepared in a 96-well plate by dissolving NP-6 and Nisin A in PBS (0.01 M, pH 7.4). Then, 50 µL of freshly prepared mouse red blood cell solution was added and incubated at 37 °C for 1 h. A total of 50 µL of PBS buffer only and 50 µL of Triton X-100 1% (w/v) were mixed with 50 µL of mouse red blood cell solution as negative and positive controls, respectively. After 1 h of incubation, all the samples were centrifuged at 1000× g for 5 min. The supernatant was collected, and the absorbance was at 595 nm with a UV–vis instrument at 25 °C. The percent hemolysis was calculated as the following equation:(1) %hemolysis=absorbancesample−absorbancenegative/absorbancepositive−absorbancenegative×100
# Mouse red blood cells that were suspended in PBS and 1% Triton X-100 represented zero hemolysis and 100% hemolysis, respectively.
# RAW 264.7 cells = experiment: CCK-8 cytotoxicity assay; format: cell-based; conditions: CCK-8, 48 h incubation, absorbance 450 nm, mean, n = 3
# Description: RAW 264.7 cells were purchased from the National Collection of Authenticated Cell Cultures (Shanghai, China). The cells were cultured in DMEM containing 10% FBS at 37 °C in a 5% CO2 incubator at constant temperature.
# The Cell Counting Kit-8 (CCK-8) assay was conducted to measure the cytotoxicity of the peptides towards RAW 264.7 cells according to Deng et al.. The cells were incubated in Roswell Park Memorial Institute (RPMI)-1640 medium at 37 °C in a humidified atmosphere with 5% CO2. Then, they were added to a 96-well plate (3 × 10^3 cells/well) to adhere for 18 h. A total of 100 µL of the samples with different concentrations (256, 512, 1024, and 2048 µg/mL) diluted by H2O were added and incubated for another 48 h, after which the medium was disposed. A total of 100 µL of the CCK-8 test solution was added and incubated for 2 h at 37 °C. The absorbance values of the mixture at 450 nm were determined. The survival rate of cells was calculated according to the following formula:(2) Survival rate (%)=absorbancesample−absorbanceblank/absorbancecontrol−absorbanceblank×100
compound,measurement,setting,value
CC[C@H](C)[C@H](NC(=O)CNC(=O)[C@@H](NC(=O)[C@H](CCCCN)NC(=O)[C@@H](NC(=O)[C@H](CCCCN)NC(=O)[C@H](CCCCN)NC(=O)[C@H](CC(=O)O)NC(=O)CNC(=O)[C@H](C)N)[C@@H](C)CC)[C@@H](C)CC)C(=O)N[C@@H](CC(N)=O)C(=O)NCC(=O)N[C@@H](Cc1ccccc1)C(=O)NCC(=O)N[C@@H](CCCNC(=N)N)C(=O)N[C@H](C(=O)NCC(=O)N[C@@H](CCCNC(=N)N)C(=O)N[C@@H](CC(C)C)C(=O)O)[C@@H](C)CC [NP-6] (H-AGDKKIKIGINGFGRIGRL-OH),inhibition rate of NP-6 + serum samples relative to NP-6,[1],exceeded 80%
same,hemolysis activity,mouse red blood cells,2.39 ± 0.13%
same,survival rate of RAW264.7 cells,RAW 264.7 cells; 1 × MIC (512 µg/mL),72.56%
same,survival rate of RAW264.7 cells,RAW 264.7 cells; 2 × MIC (1024 µg/mL),20.26%
